Residues, ends and D or L forms follow the SMILES beside them. *: point of attachment. Boc = CC(C)(C)OC(=O)*

Assay type in all cases: functional
The test system of one assay is Acinetobacter baumannii. The experiment in a line: Antibacterial activity against Acinetobacter baumannii measured after 12 hrs.
The subject of the next assay is Saccharomyces cerevisiae. The experiment in a line: Antifungal activity against Saccharomyces cerevisiae measured after 24 hrs.
A further assay relates to Staphylococcus aureus. Nature of the assay: Antibacterial activity against methicillin-resistant Staphylococcus aureus measured after 12 hrs.
In another assay the test system is Escherichia coli. The experiment in a line: Antibacterial activity against Escherichia coli measured after 12 hrs.
The nature of assay [1]: Antimigratory activity against mouse MTV/TM-011 cells assessed as wound closure measured after 24 hrs by optical microscopic analysis relative to control. On the set-up: concentration or dose not given beside the values.
The test system of a further assay is Bacillus subtilis. Nature of the assay: Antibacterial activity against Bacillus subtilis measured after 12 hrs.
A short description of assay [2]: Antimigratory activity against mouse MTV/TM-011 cells assessed as wound closure at 20 uM measured after 24 hrs by optical microscopic analysis relative to control.

For orientation: MIC means the least concentration at which growth counts as inhibited. For `CC(C)(O)c1ncc(Cc2ccc(O)cc2)[nH]c1=O`, the minimum inhibitory concentration (MIC) in the assay on Acinetobacter baumannii, with Saccharomyces cerevisiae, with Staphylococcus aureus, against Escherichia coli and against Bacillus subtilis was greater than 100 µM in each case. The Activity in assay [1] stood at 65%.

As to `CC(C)(O)c1ncc(Cc2ccccc2)[nH]c1=O`, the MIC with Acinetobacter baumannii, against Saccharomyces cerevisiae, against Staphylococcus aureus, against Escherichia coli and with Bacillus subtilis was greater than 100 µM each time. The Activity in assay [1] was 70%.

With `COC(C)(C)c1ncc(Cc2ccccc2)[nH]c1=O`, the MIC in the assay on Acinetobacter baumannii, in the assay with Saccharomyces cerevisiae, in the assay on Staphylococcus aureus, with Escherichia coli and against Bacillus subtilis was greater than 100 µM each time. In addition, the Activity in assay [1] came out at 65%.

On to `CC(C)[C@H](NC(=O)OC(C)(C)C)C(=O)N[C@H](C=O)Cc1ccccc1` (Boc-Val-Phe-aldehyde), for which the minimal inhibitory concentration (MIC) in the assay on Acinetobacter baumannii, in the assay on Saccharomyces cerevisiae, with Staphylococcus aureus, with Escherichia coli and in the assay with Bacillus subtilis was greater than 100 µM in each case. The Activity in assay [2] worked out at 65%.

For `COC(C)(C)c1ncc(Cc2ccc(O)cc2)[nH]c1=O`, the MIC in the assay on Acinetobacter baumannii, in the assay on Saccharomyces cerevisiae, in the assay on Staphylococcus aureus, in the assay with Escherichia coli and against Bacillus subtilis was greater than 100 µM in each case. For the same molecule, the Activity in assay [1] came to 65%.

Consider `CC(C)c1ncc(Cc2ccc(O)cc2)[nH]c1=O`, for which the MIC against Acinetobacter baumannii, with Saccharomyces cerevisiae, in the assay on Staphylococcus aureus, against Escherichia coli and with Bacillus subtilis was greater than 100 µM each time. Also, the Activity in assay [1] stood at 65%.

As for `O=c1[nH]cc(F)c(=O)[nH]1` [FLUOROURACIL], the Activity in assay [1] is recorded as 65%.

Regarding `CC(C)Cc1cnc(C(C)C)c(=O)[nH]1`, the MIC in the assay with Acinetobacter baumannii, with Saccharomyces cerevisiae, in the assay with Staphylococcus aureus, in the assay on Escherichia coli and in the assay with Bacillus subtilis was greater than 100 µM in each case. Besides, the Activity in assay [1] was 65%.

As to `CC(C)c1ncc(Cc2ccccc2)nc1O`, the minimal inhibitory concentration (MIC) against Acinetobacter baumannii, in the assay with Saccharomyces cerevisiae, in the assay on Staphylococcus aureus, in the assay with Escherichia coli and in the assay with Bacillus subtilis was greater than 100 µM in each case. Further, the Activity in assay [1] amounted to 72%.
